Test results: the supplement of paper PMC11451515

Experiments:
Conditions in all cases: 48 h
[1] = system: NOMO1; test: cell viability relative to DMSO control; higher = less cytotoxic
Procedure, shortened: (§1)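 Cells were incubated for 48 h at 37°C before CellTiter-Glo One luminescence was read. The cells were NOMO1 or SEM (500 cells/well) or P12-Ichikawa (1000 cells/well) leukemia cells, adapted for at least four passages in each medium and seeded in 1536-well plates (5 μl). Dosing used library compounds in DMSO applied by pin over 11 threefold points, 47 μM to 0.79 nM. Viability is the per-plate percentage of DMSO wells, with cell-free wells as background.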

[2] = system: P12-Ichikawa; test: as above
Procedure, shortened: as §1

[3] = system: SEM cells; test: as above
Procedure, shortened: as §1

[4] = system: NOMO1; test: AUC of viability dose-response curve (% viability x log10 dose units); higher = less sensitive
Procedure, shortened: (§2)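 Leukemia cells adapted to each medium were seeded in 1536-well plates (500 or 1000 cells/well). They were dosed with library compounds in DMSO at 11 threefold doses, 47 μM to 0.79 nM, for 48 h at 37°C. CellTiter-Glo One luminescence was normalised per plate to DMSO and cell-free wells. Area under the curve was integrated by trapezoidal rule over log10 doses on a four-parameter log-logistic fit; curves exceeding full viability were scaled and curves failing quality control removed.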

[5] = system: P12-Ichikawa; test: as above
Procedure, shortened: as §2

[6] = system: SEM cells; test: as above
Procedure, shortened: as §2

C=C[C@H]1CN2CCC1C[C@@H]2[C@@H](O)c1ccnc2ccccc12 (some centres undefined)
cell viability [%]
Conditions	[1]	[2]	[3]
HPLM + 10% dialyzed FBS, 0.000781 µM	97	101	95.4
HPLM + 10% dialyzed FBS, 0.00234 µM	109	99.5	95.7
HPLM + 10% dialyzed FBS, 0.00702 µM	105	95.9	103
HPLM + 10% dialyzed FBS, 0.0211 µM	93.7	99.6	112
HPLM + 10% dialyzed FBS, 0.0632 µM	99.7	100	98.5
HPLM + 10% dialyzed FBS, 0.19 µM	107	92.4	96.1
HPLM + 10% dialyzed FBS, 0.569 µM	92.7	87.7	91
HPLM + 10% dialyzed FBS, 1.71 µM	97.1	93.6	93.6
HPLM + 10% dialyzed FBS, 5.12 µM	86	85.8	85.2
HPLM + 10% dialyzed FBS, 15.4 µM	93.1	90.7	89.1
HPLM + 10% dialyzed FBS, 46.1 µM	74.9	78.2	72.1
RPMI 5 mM glucose + 10% FBS, 0.000781 µM	90.3	93.8	92
RPMI 5 mM glucose + 10% FBS, 0.00234 µM	90.6	93.4	105
RPMI 5 mM glucose + 10% FBS, 0.00702 µM	94.1	99.5	93.2
RPMI 5 mM glucose + 10% FBS, 0.0211 µM	85.4	94.7	106
RPMI 5 mM glucose + 10% FBS, 0.0632 µM	91.4	103	108
RPMI 5 mM glucose + 10% FBS, 0.19 µM	91.1	90.9	104
RPMI 5 mM glucose + 10% FBS, 0.569 µM	84.9	86.4	100
RPMI 5 mM glucose + 10% FBS, 1.71 µM	86.1	92.3	92.9
RPMI 5 mM glucose + 10% FBS, 5.12 µM	89.9	90.8	73.5
RPMI 5 mM glucose + 10% FBS, 15.4 µM	83.8	83.3	78.1
RPMI 5 mM glucose + 10% FBS, 46.1 µM	85.2	67.8	51.1
RPMI 5 mM glucose + 10% dialyzed FBS, 0.000781 µM	101	101	106
RPMI 5 mM glucose + 10% dialyzed FBS, 0.00234 µM	114	89.4	100
RPMI 5 mM glucose + 10% dialyzed FBS, 0.00702 µM	96.7	91.7	90
RPMI 5 mM glucose + 10% dialyzed FBS, 0.0211 µM	99.3	96.6	106
RPMI 5 mM glucose + 10% dialyzed FBS, 0.0632 µM	92.6	97.2	102
RPMI 5 mM glucose + 10% dialyzed FBS, 0.19 µM	96	92.6	103
RPMI 5 mM glucose + 10% dialyzed FBS, 0.569 µM	85.2	96.5	110
RPMI 5 mM glucose + 10% dialyzed FBS, 1.71 µM	99.1	81.7	94.1
RPMI 5 mM glucose + 10% dialyzed FBS, 5.12 µM	84.1	84.5	87.3
RPMI 5 mM glucose + 10% dialyzed FBS, 15.4 µM	85.4	81.8	86.6
RPMI 5 mM glucose + 10% dialyzed FBS, 46.1 µM	76.8	67.9	64.1

AUC of viability dose-response curve
Conditions	[4]	[5]	[6]
HPLM + 10% dialyzed FBS	453	443	448
RPMI 5 mM glucose + 10% FBS	422	436	435
RPMI 5 mM glucose + 10% dialyzed FBS	420	429	451

CCCC(CCC)C(=O)[O-]
cell viability [%]
Conditions	[1]	[2]	[3]
HPLM + 10% dialyzed FBS, 0.000781 µM	106	87.4	87
HPLM + 10% dialyzed FBS, 0.00234 µM	105	96.6	88.8
HPLM + 10% dialyzed FBS, 0.00702 µM	113	103	110
HPLM + 10% dialyzed FBS, 0.0211 µM	122	102	97.5
HPLM + 10% dialyzed FBS, 0.0632 µM	116	106	92.3
HPLM + 10% dialyzed FBS, 0.19 µM	120	104	91
HPLM + 10% dialyzed FBS, 0.569 µM	109	102	103
HPLM + 10% dialyzed FBS, 1.71 µM	110	103	112
HPLM + 10% dialyzed FBS, 5.12 µM	101	109	93.3
HPLM + 10% dialyzed FBS, 15.4 µM	84.9	105	100
HPLM + 10% dialyzed FBS, 46.1 µM	63.8	101	88.6
RPMI 5 mM glucose + 10% FBS, 0.000781 µM	86.1	88.6	104
RPMI 5 mM glucose + 10% FBS, 0.00234 µM	96.6	103	103
RPMI 5 mM glucose + 10% FBS, 0.00702 µM	107	105	121
RPMI 5 mM glucose + 10% FBS, 0.0211 µM	123	110	123
RPMI 5 mM glucose + 10% FBS, 0.0632 µM	106	115	115
RPMI 5 mM glucose + 10% FBS, 0.19 µM	113	119	102
RPMI 5 mM glucose + 10% FBS, 0.569 µM	107	105	125
RPMI 5 mM glucose + 10% FBS, 1.71 µM	102	108	125
RPMI 5 mM glucose + 10% FBS, 5.12 µM	111	105	115
RPMI 5 mM glucose + 10% FBS, 15.4 µM	94.4	105	116
RPMI 5 mM glucose + 10% FBS, 46.1 µM	92.1	94.8	135
RPMI 5 mM glucose + 10% dialyzed FBS, 0.000781 µM	75.5	94.2	74.3
RPMI 5 mM glucose + 10% dialyzed FBS, 0.00234 µM	108	102	105
RPMI 5 mM glucose + 10% dialyzed FBS, 0.00702 µM	105	102	95.3
RPMI 5 mM glucose + 10% dialyzed FBS, 0.0211 µM	106	114	124
RPMI 5 mM glucose + 10% dialyzed FBS, 0.0632 µM	112	112	89.7
RPMI 5 mM glucose + 10% dialyzed FBS, 0.19 µM	116	107	96.8
RPMI 5 mM glucose + 10% dialyzed FBS, 0.569 µM	114	104	107
RPMI 5 mM glucose + 10% dialyzed FBS, 1.71 µM	109	101	118
RPMI 5 mM glucose + 10% dialyzed FBS, 5.12 µM	98.6	107	107
RPMI 5 mM glucose + 10% dialyzed FBS, 15.4 µM	110	106	98.1
RPMI 5 mM glucose + 10% dialyzed FBS, 46.1 µM	101	96.5	108

AUC of viability dose-response curve
Conditions	[4]	[5]	[6]
HPLM + 10% dialyzed FBS	448	468	461
RPMI 5 mM glucose + 10% FBS	469	472	442
RPMI 5 mM glucose + 10% dialyzed FBS	453	476	468

CCOc1cc(/C=C2/C(=O)N(c3ccccc3)N=C2C)cc(Cl)c1OCC(=O)OC
cell viability [%]
Conditions	[1]	[2]	[3]
HPLM + 10% dialyzed FBS, 0.000781 µM	86.1	85.7	69.2
HPLM + 10% dialyzed FBS, 0.00234 µM	92.5	90.9	85.9
HPLM + 10% dialyzed FBS, 0.00702 µM	93	87.7	84
HPLM + 10% dialyzed FBS, 0.0211 µM	93.5	93.7	82.7
HPLM + 10% dialyzed FBS, 0.0632 µM	84.4	84.6	81
HPLM + 10% dialyzed FBS, 0.19 µM	95.5	89.9	90
HPLM + 10% dialyzed FBS, 0.569 µM	101	91.1	85.9
HPLM + 10% dialyzed FBS, 1.71 µM	96.3	98.7	89.5
HPLM + 10% dialyzed FBS, 5.12 µM	87.5	88.3	75.7
HPLM + 10% dialyzed FBS, 15.4 µM	77.6	84.6	83.6
HPLM + 10% dialyzed FBS, 46.1 µM	85.1	83.3	48.4
RPMI 5 mM glucose + 10% FBS, 0.000781 µM	81.8	79.4	86.2
RPMI 5 mM glucose + 10% FBS, 0.00234 µM	80.8	89.3	95.7
RPMI 5 mM glucose + 10% FBS, 0.00702 µM	82.1	77.2	85.2
RPMI 5 mM glucose + 10% FBS, 0.0211 µM	89.2	85.7	91.1
RPMI 5 mM glucose + 10% FBS, 0.0632 µM	93.6	81	82
RPMI 5 mM glucose + 10% FBS, 0.19 µM	89.5	92.8	107
RPMI 5 mM glucose + 10% FBS, 0.569 µM	93.3	89.1	95.6
RPMI 5 mM glucose + 10% FBS, 1.71 µM	88.4	86.6	95.8
RPMI 5 mM glucose + 10% FBS, 5.12 µM	78.4	89.8	90.9
RPMI 5 mM glucose + 10% FBS, 15.4 µM	91.8	80.9	71.9
RPMI 5 mM glucose + 10% FBS, 46.1 µM	83	89.6	58.6
RPMI 5 mM glucose + 10% dialyzed FBS, 0.000781 µM	89.2	90.1	80
RPMI 5 mM glucose + 10% dialyzed FBS, 0.00234 µM	88.5	85.7	74.3
RPMI 5 mM glucose + 10% dialyzed FBS, 0.00702 µM	94.9	92	95
RPMI 5 mM glucose + 10% dialyzed FBS, 0.0211 µM	85.5	88	90
RPMI 5 mM glucose + 10% dialyzed FBS, 0.0632 µM	92.6	83	64.4
RPMI 5 mM glucose + 10% dialyzed FBS, 0.19 µM	102	88.5	90.6
RPMI 5 mM glucose + 10% dialyzed FBS, 0.569 µM	85	85	81.5
RPMI 5 mM glucose + 10% dialyzed FBS, 1.71 µM	82.8	86.9	86.3
RPMI 5 mM glucose + 10% dialyzed FBS, 5.12 µM	86.7	86.9	85.8
RPMI 5 mM glucose + 10% dialyzed FBS, 15.4 µM	84.6	90.7	65.9
RPMI 5 mM glucose + 10% dialyzed FBS, 46.1 µM	87.5	86.5	59

AUC of viability dose-response curve
Conditions	[4]	[5]	[6]
HPLM + 10% dialyzed FBS	432	424	386
RPMI 5 mM glucose + 10% FBS	413	408	422
RPMI 5 mM glucose + 10% dialyzed FBS	425	418	383
